Laboratory results published in the supplement of paper PMC6045584.
± gives the standard deviation of the averaged measurements.

How the values were obtained:
[1] = compound: C[C@@H](Oc1cc(-c2cnn(C3CCNCC3)c2)cnc1N)c1c(Cl)ccc(F)c1Cl; assay: surviving fraction relative to DMSO-only wells; higher = less growth inhibition; details: exposure time: 5 days
Outline: (§1)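 Inhibitors at 0.5, 1, 5, 10, 50, 100, 500 and 1000 nM were applied continuously for five days to tumour cell lines seeded in log phase at 250–500 cells per well in 384-well plates 24 hours earlier. Viability was measured by CellTiter-Glo luminescence and expressed as surviving fraction relative to the median of DMSO-only wells. Luminescence was taken after 10 minutes at room temperature.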

SORAFENIB = compound: CNC(=O)c1cc(Oc2ccc(NC(=O)Nc3ccc(Cl)c(C(F)(F)F)c3)cc2)ccn1 [SORAFENIB]; assay: as above; details: exposure time: 5 days
Outline: as §1

| Test System | surviving fraction ([1]; 0.5 nM) | surviving fraction ([1]; 1 nM) | surviving fraction ([1]; 5 nM) | surviving fraction ([1]; 10 nM) | surviving fraction ([1]; 50 nM) | surviving fraction ([1]; 100 nM) | surviving fraction ([1]; 500 nM) | surviving fraction ([1]; 1000 nM) | surviving fraction (SORAFENIB; 0.5 nM) | surviving fraction (SORAFENIB; 1 nM) | surviving fraction (SORAFENIB; 10 nM) | surviving fraction (SORAFENIB; 50 nM) | surviving fraction (SORAFENIB; 500 nM) | surviving fraction (SORAFENIB; 1000 nM) | surviving fraction (SORAFENIB; 5 nM) | surviving fraction (SORAFENIB; 100 nM) |
| --- | --- | --- | --- | --- | --- | --- | --- | --- | --- | --- | --- | --- | --- | --- | --- | --- |
| SUM159 BREAST | 1.07 ± 0.2 | 1.07 ± 0.17 | 1.07 ± 0.18 | 1.05 ± 0.16 | 1.07 ± 0.19 | 0.984 ± 0.06 | 1.04 ± 0.19 | 0.94 ± 0.086 | 0.909 ± 0.23 | 0.956 ± 0.18 | 0.936 ± 0.18 | 0.997 ± 0.15 | 0.909 ± 0.28 | 0.071 ± 0.043 | – | – |
| SYO1 SYNOVIAL | 0.814 ± 0.068 | 0.821 ± 0.064 | 0.822 ± 0.031 | 0.781 ± 0.027 | 0.904 ± 0.01 | 0.829 ± 0.036 | 0.26 ± 0.063 | 0.123 ± 0.0083 | 0.9613 ± 0.0017 | 1.02 ± 0.023 | 0.981 ± 0.017 | 0.968 ± 0.025 | – | 0.679 ± 0.022 | 1.02 ± 0.045 | 0.912 ± 0.033 |
| T47D BREAST | 0.912 ± 0.03 | 0.949 ± 0.026 | 0.938 ± 0.049 | 0.95 ± 0.026 | 1.02 ± 0.038 | 1.03 ± 0.059 | – | 0.856 ± 0.041 | 1.083 ± 0.01 | 1.02 ± 0.028 | 1.02 ± 0.046 | 1.14 ± 0.029 | 1.149 ± 0.0045 | 1.12 ± 0.039 | 1.07 ± 0.053 | 1.13 ± 0.018 |
| U2OS BONE | 0.938 ± 0.047 | 0.974 ± 0.027 | 0.98 ± 0.028 | – | – | 0.976 ± 0.052 | 0.474 ± 0.02 | 0.472 ± 0.012 | 1.01 ± 0.019 | 1.03 ± 0.027 | 1.05 ± 0.029 | 1.08 ± 0.035 | 1.08 ± 0.016 | 1 ± 0.067 | 1.06 ± 0.05 | – |
| VCAP PROSTATE | – | 0.919 ± 0.097 | 1.02 ± 0.091 | 1.01 ± 0.031 | 1.08 ± 0.055 | 0.897 ± 0.061 | 0.429 ± 0.027 | 0.143 ± 0.0055 | 1.13 ± 0.17 | 1.17 ± 0.11 | 1.08 ± 0.053 | 1.12 ± 0.21 | 1.13 ± 0.16 | 1.02 ± 0.062 | 1.19 ± 0.12 | – |
| VP229 BREAST | 0.809 ± 0.029 | – | 0.95 ± 0.11 | 0.777 ± 0.12 | 1.08 ± 0.098 | – | – | 0.544 ± 0.024 | 0.934 ± 0.11 | 0.939 ± 0.05 | 1 ± 0.11 | 1.21 ± 0.088 | 1.31 ± 0.13 | 1.3 ± 0.028 | 1.06 ± 0.11 | 1.12 ± 0.17 |
| YAMATO SYNOVIAL | 0.796 ± 0.0095 | 0.763 ± 0.069 | 0.79 ± 0.015 | 0.724 ± 0.12 | 0.425 ± 0.015 | 0.309 ± 0.014 | 0.279 ± 0.014 | 0.333 ± 0.024 | 1.26 ± 0.054 | 1.24 ± 0.066 | 1.26 ± 0.078 | 1.44 ± 0.096 | 1.18 ± 0.088 | 1.04 ± 0.056 | 1.37 ± 0.096 | 1.35 ± 0.05 |
| ZR751 BREAST | 0.874 ± 0.087 | 0.924 ± 0.052 | 0.873 ± 0.082 | 0.797 ± 0.046 | 0.82 ± 0.14 | 0.967 ± 0.052 | 0.727 ± 0.074 | 0.699 ± 0.077 | 1.08 ± 0.086 | 1.04 ± 0.02 | 1.02 ± 0.18 | 1.28 ± 0.042 | – | 1.06 ± 0.072 | 0.99 ± 0.056 | 1.31 ± 0.19 |
